Laboratory results from patent US20100041089A1, “IMPROVED METHOD FOR DETECTING CHEMICAL […]” (priority 2006, published 2010).

Test system: yeast genes (expressed mRNA)
Assay: DNA chip measurement of expressed mRNA of yeast genes after culture with a toxic chemical substance
Assay type: cell-based, Saccharomyces cerevisiae S288C
In short: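 Expression is given as treated/untreated fluorescence ratio on a whole-genome yeast DNA chip, a ratio of two or more being significant. Log-phase S288C cultures in YPD at 25 °C received the chemical for 2 h at a dose that slows growth without killing. mRNA was reverse-transcribed with Cy3- or Cy5-dUTP.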

C=CC=O [(14), Acrolein]
The level of expressed mRNA in the presence of chemical substance/The level of expressed mRNA in the absence of chemical substance (yeast gene YMR316W, cultured two hours with substance): 1.3 | The level of expressed mRNA in the presence of chemical substance/The level of expressed mRNA in the absence of chemical substance (yeast gene YNL036W): 5.1 | The level of expressed mRNA in the presence of chemical substance/The level of expressed mRNA in the absence of chemical substance (yeast gene YNL044W, cultured two hours with substance): 1.2 | The level of expressed mRNA in the presence of chemical substance/The level of expressed mRNA in the absence of chemical substance (yeast gene YNL074C, cultured two hours with substance): 0.6 | The level of expressed mRNA in the presence of chemical substance/The level of expressed mRNA in the absence of chemical substance (yeast gene YNL092W, cultured two hours with substance): 1.2 | The level of expressed mRNA in the presence of chemical substance/The level of expressed mRNA in the absence of chemical substance (yeast gene YNL115C, cultured two hours with substance): 1.0 | The level of expressed mRNA in the presence of chemical substance/The level of expressed mRNA in the absence of chemical substance (yeast gene YNL155W, cultured two hours with substance): 2.1 | The level of expressed mRNA in the presence of chemical substance/The level of expressed mRNA in the absence of chemical substance (yeast gene YNL156C, cultured two hours with substance): 1.4 | The level of expressed mRNA in the presence of chemical substance/The level of expressed mRNA in the absence of chemical substance (yeast gene YNL190W, cultured two hours with substance): 0.6 | The level of expressed mRNA in the presence of chemical substance/The level of expressed mRNA in the absence of chemical substance (yeast gene YNL195C, cultured two hours with the chemical substance): 1.5 | The level of expressed mRNA in the presence of chemical substance/The level of expressed mRNA in the absence of chemical substance (yeast gene YNL208W, cultured two hours with substance): 1.0 | The level of expressed mRNA in the presence of chemical substance/The level of expressed mRNA in the absence of chemical substance (yeast gene YNL234W, cultured two hours with substance): 1.5 | The level of expressed mRNA in the presence of chemical substance/The level of expressed mRNA in the absence of chemical substance (yeast gene YNL281W, cultured two hours with substance): 1.2 | The level of expressed mRNA in the presence of chemical substance/The level of expressed mRNA in the absence of chemical substance (yeast gene YNL300W, cultured two hours with substance): 0.8 | The level of expressed mRNA in the presence of chemical substance/The level of expressed mRNA in the absence of chemical substance (yeast gene YNL305C, cultured two hours with substance): 1.3 | The level of expressed mRNA in the presence of chemical substance/The level of expressed mRNA in the absence of chemical substance (yeast gene YNL335W): 4.6 | The level of expressed mRNA in the presence of chemical substance/The level of expressed mRNA in the absence of chemical substance (yeast gene YNR064C, cultured two hours with substance): 0.8 | The level of expressed mRNA in the presence of chemical substance/The level of expressed mRNA in the absence of chemical substance (yeast gene YNR068C, cultured two hours with substance): 1.8 | The level of expressed mRNA in the presence of chemical substance/The level of expressed mRNA in the absence of chemical substance (yeast gene YOL032W, cultured two hours with substance): 1.3 | The level of expressed mRNA in the presence of chemical substance/The level of expressed mRNA in the absence of chemical substance (yeast gene YOL036W, cultured two hours with substance): 1.0 | The level of expressed mRNA in the presence of chemical substance/The level of expressed mRNA in the absence of chemical substance (yeast gene YOL047C, cultured two hours with substance): 1.2 | The level of expressed mRNA in the presence of chemical substance/The level of expressed mRNA in the absence of chemical substance (yeast gene YOL071W, cultured two hours with substance): 2.5 | The level of expressed mRNA in the presence of chemical substance/The level of expressed mRNA in the absence of chemical substance (yeast gene YOL082W, cultured two hours with substance): 1.4 | The level of expressed mRNA in the presence of chemical substance/The level of expressed mRNA in the absence of chemical substance (yeast gene YOL083W, cultured two hours with substance): 1.4 | The level of expressed mRNA in the presence of chemical substance/The level of expressed mRNA in the absence of chemical substance (yeast gene YOL117W, cultured two hours with substance): 1.7 | The level of expressed mRNA in the presence of chemical substance/The level of expressed mRNA in the absence of chemical substance (yeast gene YOL131W, cultured two hours with substance): 2.3 | The level of expressed mRNA in the presence of chemical substance/The level of expressed mRNA in the absence of chemical substance (yeast gene YOL150C, cultured two hours with substance): 5.7 | The level of expressed mRNA in the presence of chemical substance/The level of expressed mRNA in the absence of chemical substance (yeast gene YOL162W, cultured two hours with substance): 1.4 | The level of expressed mRNA in the presence of chemical substance/The level of expressed mRNA in the absence of chemical substance (yeast gene YOR019W, cultured two hours with substance): 1.4 | The level of expressed mRNA in the presence of chemical substance/The level of expressed mRNA in the absence of chemical substance (yeast gene YOR049C, cultured two hours with substance): 1.5 | The level of expressed mRNA in the presence of chemical substance/The level of expressed mRNA in the absence of chemical substance (yeast gene YOR197W, cultured two hours with substance): 0.7 | The level of expressed mRNA in the presence of chemical substance/The level of expressed mRNA in the absence of chemical substance (yeast gene YOR248W, cultured two hours with substance): 0.5 | The level of expressed mRNA in the presence of chemical substance/The level of expressed mRNA in the absence of chemical substance (yeast gene YOR338W, cultured two hours with substance): 2.5 | The level of expressed mRNA in the presence of chemical substance/The level of expressed mRNA in the absence of chemical substance (yeast gene YPL052W, cultured two hours with substance): 3.2 | The level of expressed mRNA in the presence of chemical substance/The level of expressed mRNA in the absence of chemical substance (yeast gene YPL087W, cultured two hours with substance): 1.2 | The level of expressed mRNA in the presence of chemical substance/The level of expressed mRNA in the absence of chemical substance (yeast gene YPL171C, cultured for two hours with substance): 9.3 | The level of expressed mRNA in the presence of chemical substance/The level of expressed mRNA in the absence of chemical substance (yeast gene YPL196W, cultured two hours with substance): 1.6 | The level of expressed mRNA in the presence of chemical substance/The level of expressed mRNA in the absence of chemical substance (yeast gene YPL206C, cultured two hours with substance): 1.1 | The level of expressed mRNA in the presence of chemical substance/The level of expressed mRNA in the absence of chemical substance (yeast gene YPL222W, cultured two hours with substance): 1.1 | The level of expressed mRNA in the presence of chemical substance/The level of expressed mRNA in the absence of chemical substance (yeast gene YPR023C, cultured two hours with substance): 0.9 | The level of expressed mRNA in the presence of chemical substance/The level of expressed mRNA in the absence of chemical substance (yeast gene YPR079W, cultured two hours with substance): 1.3 | The level of expressed mRNA in the presence of chemical substance/The level of expressed mRNA in the absence of chemical substance (yeast gene YPR151C, cultured two hours with substance): 1.4
